Data published in patent publication US20230053864A1, “Methods for Identifying Modulators of G Protein-Coupled Receptors” (University of Miami, priority 2019, published 2023).
Values joined by “and” are separate entries in the source; they are usually repeats but may differ in a detail not shown here. Equal values may be shown once. “Also recorded” adds a separate entry of the source.

Legend:
[1] = biological target: T1, ADRA2B (Homo sapiens, UniProt P18089); experiment: dCyFIRscreen profiling and titrations in yeast GPCR-Gα reporter strains; assay type: cell-based
T1 construct: expressed in transfected cells; host or cells: Saccharomyces cerevisiae BY4741-derived GPCR-Gα reporter strains, X-2 landing pad
T1 sequence (P18089 1-450): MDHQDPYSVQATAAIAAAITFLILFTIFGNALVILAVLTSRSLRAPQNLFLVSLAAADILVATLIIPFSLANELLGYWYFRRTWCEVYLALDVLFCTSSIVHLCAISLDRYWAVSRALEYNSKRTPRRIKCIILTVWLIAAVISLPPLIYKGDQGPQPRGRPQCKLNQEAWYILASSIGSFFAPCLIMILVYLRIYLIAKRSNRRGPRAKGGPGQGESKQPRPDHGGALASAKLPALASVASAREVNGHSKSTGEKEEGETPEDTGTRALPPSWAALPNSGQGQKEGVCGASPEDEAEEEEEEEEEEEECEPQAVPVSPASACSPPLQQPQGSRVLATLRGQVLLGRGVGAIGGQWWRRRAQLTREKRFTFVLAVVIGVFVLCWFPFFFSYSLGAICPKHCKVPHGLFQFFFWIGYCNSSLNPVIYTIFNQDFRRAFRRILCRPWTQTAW
Experimental: dCyFIRscreen protocol. […] Cells were normalized to an OD of 0.1 in SCD LoFo pH=7.0 using a Biomek NXp liquid-handling robot. […] 36 μL normalized cells were distributed to each well containing the appropriate 10× ligand/vehicle. Plates were sealed with a breathable cover (Diversified Biotech; BERM-2000) and incubated at 30° C. […] Absorbance readings were also collected after 18 hours using the same instrument (22 flashes/well, excitation filter: 600 nm).
Titration Analyses. All titration curves were analyzed using Prism software and the pharmacological fitting function log(agonist) vs. response—Variable slope (four parameters) (GraphPad Software, San Diego, USA).

[2] = biological target: T2, GPR35 (Homo sapiens, UniProt Q9HC97); experiment: as above; assay type: cell-based
T2 construct: expressed in transfected cells; host or cells: Saccharomyces cerevisiae BY4741-derived GPCR-Gα reporter strains, X-2 landing pad
T2 sequence (Q9HC97 whole entry): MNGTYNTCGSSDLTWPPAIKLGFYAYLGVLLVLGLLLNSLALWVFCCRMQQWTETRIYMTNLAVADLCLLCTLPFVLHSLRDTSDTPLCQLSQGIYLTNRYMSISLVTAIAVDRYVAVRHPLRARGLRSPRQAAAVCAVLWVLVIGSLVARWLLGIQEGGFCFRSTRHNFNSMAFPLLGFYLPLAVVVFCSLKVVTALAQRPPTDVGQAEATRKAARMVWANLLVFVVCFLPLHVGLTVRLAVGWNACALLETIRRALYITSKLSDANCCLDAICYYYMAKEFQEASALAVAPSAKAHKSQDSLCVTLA
Experimental: (§1) Individual Gα reporter strains were grown in SCD LoFo pH=7.0 at 30° C. to an OD=1.0 in a 2.0 mL 96-well DeepWell block (Greiner; 780271-FD). Cells were normalized to an OD of 0.1 in SCD LoFo pH=7.0 using a Biomek NXp liquid-handling robot. 10× ligand/vehicle stocks were prepared (see Table 2) and 4 μL were distributed to each well of a 384-well plate (Greiner; 781096) in quadruplicate using a Biomek NXp. 36 μL normalized cells were distributed to each well containing the appropriate 10× ligand/vehicle. Plates were sealed with a breathable cover (Diversified Biotech; BERM-2000) and incubated at 30° C. Fluorescence readings were collected after 18 hours using a plate reader (ClarioStar, BMG LabTech, Offenburg, Germany) (bottom read, 10 flashes/well, excitation filter: 430-10 nm, dichroic filter: LP 458 nm, emission filter: 482-16 nm, gain=1300 (1500 for FIG. 1B.)). Absorbance readings were also collected after 18 hours using the same instrument (22 flashes/well, excitation filter: 600 nm).
(§2) All titration curves were analyzed using Prism software and the pharmacological fitting function log(agonist) vs. response—Variable slope (four parameters) (GraphPad Software, San Diego, USA).

[3] = biological target: HCAR3 (Homo sapiens, UniProt P49019); experiment: as above; assay type: cell-based; set-up: expressed in transfected cells; conditions: for EC50: titration, yeast GPCR-Gα reporter strain, this study
Sequence of HCAR3 (P49019 whole entry): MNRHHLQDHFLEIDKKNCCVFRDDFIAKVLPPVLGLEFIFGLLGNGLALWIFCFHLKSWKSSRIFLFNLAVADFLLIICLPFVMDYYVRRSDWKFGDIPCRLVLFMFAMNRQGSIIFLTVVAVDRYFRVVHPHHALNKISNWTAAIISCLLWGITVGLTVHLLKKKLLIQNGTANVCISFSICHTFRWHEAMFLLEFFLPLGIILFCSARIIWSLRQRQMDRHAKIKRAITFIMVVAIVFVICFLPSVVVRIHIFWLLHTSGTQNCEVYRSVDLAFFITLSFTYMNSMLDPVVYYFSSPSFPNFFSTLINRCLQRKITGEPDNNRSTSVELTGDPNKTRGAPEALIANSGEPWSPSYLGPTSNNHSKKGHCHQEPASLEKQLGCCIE
Experimental: as §1, §2

[4] = biological target: T3, LPAR1 (Homo sapiens, UniProt Q92633); experiment: as above; assay type: cell-based
T3 construct: expressed in transfected cells; host or cells: Saccharomyces cerevisiae BY4741-derived GPCR-Gα reporter strains, X-2 landing pad
T3 sequence (Q92633 whole entry): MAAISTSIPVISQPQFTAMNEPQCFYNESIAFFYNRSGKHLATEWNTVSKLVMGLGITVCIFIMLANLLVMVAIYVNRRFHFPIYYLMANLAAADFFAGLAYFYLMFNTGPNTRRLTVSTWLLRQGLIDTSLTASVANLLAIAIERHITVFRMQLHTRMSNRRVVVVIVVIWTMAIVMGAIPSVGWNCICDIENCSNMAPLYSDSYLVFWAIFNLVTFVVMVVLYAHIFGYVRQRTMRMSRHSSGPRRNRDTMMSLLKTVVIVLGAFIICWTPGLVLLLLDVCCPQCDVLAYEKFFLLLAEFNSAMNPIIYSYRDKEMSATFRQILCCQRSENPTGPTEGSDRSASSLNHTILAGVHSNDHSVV
Experimental: as §1, §2

[5] = biological target: T4, S1PR2 (Homo sapiens, UniProt O95136); experiment: as above; assay type: cell-based
T4 construct: expressed in transfected cells; host or cells: Saccharomyces cerevisiae BY4741-derived GPCR-Gα reporter strains, X-2 landing pad
T4 sequence (O95136 whole entry): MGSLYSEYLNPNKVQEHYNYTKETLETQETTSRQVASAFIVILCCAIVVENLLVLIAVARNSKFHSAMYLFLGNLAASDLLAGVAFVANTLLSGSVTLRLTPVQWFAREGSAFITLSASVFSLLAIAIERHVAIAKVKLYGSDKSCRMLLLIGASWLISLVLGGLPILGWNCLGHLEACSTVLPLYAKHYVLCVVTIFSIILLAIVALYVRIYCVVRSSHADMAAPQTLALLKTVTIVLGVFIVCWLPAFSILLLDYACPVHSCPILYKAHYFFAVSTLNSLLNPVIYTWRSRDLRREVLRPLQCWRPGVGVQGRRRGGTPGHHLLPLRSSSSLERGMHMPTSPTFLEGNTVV
Experimental: as §1, §2

[6] = biological target: T5, S1PR1 (Homo sapiens, UniProt P21453); experiment: as above; assay type: cell-based
T5 construct: expressed in transfected cells; host or cells: Saccharomyces cerevisiae BY4741-derived GPCR-Gα reporter strains, X-2 landing pad
T5 sequence (P21453 whole entry): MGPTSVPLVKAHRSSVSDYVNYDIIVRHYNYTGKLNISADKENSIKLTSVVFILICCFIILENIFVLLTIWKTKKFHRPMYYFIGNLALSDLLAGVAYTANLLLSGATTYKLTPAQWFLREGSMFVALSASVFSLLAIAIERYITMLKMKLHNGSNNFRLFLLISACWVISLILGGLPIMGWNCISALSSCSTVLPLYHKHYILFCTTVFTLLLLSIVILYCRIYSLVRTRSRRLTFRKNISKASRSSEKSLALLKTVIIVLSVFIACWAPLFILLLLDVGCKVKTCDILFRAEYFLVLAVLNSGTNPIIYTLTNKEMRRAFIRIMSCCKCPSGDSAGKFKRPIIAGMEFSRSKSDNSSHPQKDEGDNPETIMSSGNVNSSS
Experimental: as §1, §2

[7] = tested on: 300-plex of GPCR-Gα reporter strains; experiment: dCyFIRplex FACS sorting of agonist-treated 300-plex; assay type: cell-based, Saccharomyces cerevisiae; conditions: following agonist treatment
Experimental: dCyFIRplex protocol. […] 10× ligand/vehicle stocks were added to individual wells of a DeepWell block. The consolidated 300-plex or control strains were then added to each well and grown in the presence of ligand/vehicle overnight, so that each culture would reach an OD=4.0 before dCyFIRplex profiling. Samples were washed with sterile ddH2O and normalized to an OD=2.0 in SCD LoFo pH=7.0. Tracer cells were added to each sample at a 1:301 ratio. The final mixture was then transferred into a glass sample tube (USA Scientific; 1450-2810) and used for cell sorting. A BD FACSAria-II cell sorter was used for all dCyFIRplex experiments to assess mTq2 (405 nm excitation, 450/50 nm emission) and mRuby3 fluorescence (535 nm excitation, 610/20 nm emission). A gating strategy was set using the three control samples (DI P1 mTq2, individual Gα reporter strains lacking an integrated receptor, and DI P1 mRuby3) such that tracer cells and any cell expressing mTq2 was sorted into a 14 mL collection tube (USA Scientific; 1485-2810) containing 500 μL YPD. Samples treated with water or 500 μM adenosine (well-characterized using dCyFIRscreen, inexpensive, and water-soluble) were used to build a standard curve measuring total events in the mRuby3 and mTq2 positive gates. The standard curve from a water-treated 300-plex was used to determine the number of tracer events that would correspond to 15,000 events in the mTq2 gate for a water-treated 300-plex. Each sample was sorted until the standardized tracer count was reached. Sorted cells were enriched by outgrowth in 5 mL YPD at 30° C. with shaking (200 rpm) for 18 hours. Cells were harvested by centrifugation at 3,000×g for 5 min, and resuspended in 1 mL ddH2O. Cells were either processed immediately for qPCR deconvolution or frozen in 100 μL aliquots for storage at −20° C. The set of samples comparatively deconvoluted by qPCR and NanoString methods were derived from aliquots of the same dCyFIRplex experiments. […]

[8] = tested on: 20 GPCRs (200 GPCR-Gα strains); experiment: control dCyFIRscreen profiles against 20 GPCRs (200 GPCR-Gα strains); assay type: cell-based, human; conditions: 20 GPCRs incl. all 15 constitutively active receptors
Experimental: (§3) dCyFIRscreen protocol. Individual Gα reporter strains were grown in SCD LoFo pH=7.0 at 30° C. to an OD=1.0 in a 2.0 mL 96-well DeepWell block (Greiner; 780271-FD). Cells were normalized to an OD of 0.1 in SCD LoFo pH=7.0 using a Biomek NXp liquid-handling robot. 10× ligand/vehicle stocks were prepared (see Table 2) and 4 μL were distributed to each well of a 384-well plate (Greiner; 781096) in quadruplicate using a Biomek NXp. 36 μL normalized cells were distributed to each well containing the appropriate 10× ligand/vehicle. Plates were sealed with a breathable cover (Diversified Biotech; BERM-2000) and incubated at 30° C. Fluorescence readings were collected after 18 hours using a plate reader (ClarioStar, BMG LabTech, Offenburg, Germany) (bottom read, 10 flashes/well, excitation filter: 430-10 nm, dichroic filter: LP 458 nm, emission filter: 482-16 nm, gain=1300 (1500 for FIG. 1B.)). Absorbance readings were also collected after 18 hours using the same instrument (22 flashes/well, excitation filter: 600 nm).

[9] = biological target: T6, HCAR2 (Homo sapiens, UniProt Q8TDS4); experiment: dCyFIRscreen profiling in yeast GPCR-Gα reporter strains; assay type: cell-based
T6 construct: expressed in transfected cells; host or cells: Saccharomyces cerevisiae BY4741-derived GPCR-Gα reporter strains, X-2 landing pad
T6 sequence (Q8TDS4 whole entry): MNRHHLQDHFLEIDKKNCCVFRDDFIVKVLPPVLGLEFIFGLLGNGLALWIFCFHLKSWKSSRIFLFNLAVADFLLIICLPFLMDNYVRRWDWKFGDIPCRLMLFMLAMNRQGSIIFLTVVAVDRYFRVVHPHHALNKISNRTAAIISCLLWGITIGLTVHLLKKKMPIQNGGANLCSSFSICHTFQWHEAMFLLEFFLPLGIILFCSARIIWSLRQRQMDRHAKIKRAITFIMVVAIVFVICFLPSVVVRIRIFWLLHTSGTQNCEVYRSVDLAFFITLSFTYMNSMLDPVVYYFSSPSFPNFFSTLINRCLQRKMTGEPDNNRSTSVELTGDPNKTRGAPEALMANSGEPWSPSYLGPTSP
Experimental: as §1

[10] = biological target: T7, GPR4 (Homo sapiens, UniProt P46093); experiment: as above; assay type: cell-based
T7 construct: expressed in transfected cells; host or cells: Saccharomyces cerevisiae BY4741-derived GPCR-Gα reporter strains, X-2 landing pad
T7 sequence (P46093 whole entry): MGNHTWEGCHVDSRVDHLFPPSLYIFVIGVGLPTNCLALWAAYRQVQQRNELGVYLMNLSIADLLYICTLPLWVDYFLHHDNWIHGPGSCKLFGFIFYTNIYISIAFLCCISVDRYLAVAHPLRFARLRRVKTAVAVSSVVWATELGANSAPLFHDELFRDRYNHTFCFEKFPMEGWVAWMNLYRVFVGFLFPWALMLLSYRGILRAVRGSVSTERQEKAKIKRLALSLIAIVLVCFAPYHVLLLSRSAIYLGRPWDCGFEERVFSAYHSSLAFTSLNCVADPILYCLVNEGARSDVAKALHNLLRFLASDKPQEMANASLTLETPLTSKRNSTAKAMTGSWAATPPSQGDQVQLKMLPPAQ
Experimental: as §1

[11] = biological target: T8, GPR68 (Homo sapiens, UniProt Q15743); experiment: dCyFIRscreen profiling and titrations in yeast GPCR-Gα reporter strains; assay type: cell-based
T8 construct: expressed in transfected cells; host or cells: Saccharomyces cerevisiae BY4741-derived GPCR-Gα reporter strains, X-2 landing pad
T8 sequence (Q15743 whole entry): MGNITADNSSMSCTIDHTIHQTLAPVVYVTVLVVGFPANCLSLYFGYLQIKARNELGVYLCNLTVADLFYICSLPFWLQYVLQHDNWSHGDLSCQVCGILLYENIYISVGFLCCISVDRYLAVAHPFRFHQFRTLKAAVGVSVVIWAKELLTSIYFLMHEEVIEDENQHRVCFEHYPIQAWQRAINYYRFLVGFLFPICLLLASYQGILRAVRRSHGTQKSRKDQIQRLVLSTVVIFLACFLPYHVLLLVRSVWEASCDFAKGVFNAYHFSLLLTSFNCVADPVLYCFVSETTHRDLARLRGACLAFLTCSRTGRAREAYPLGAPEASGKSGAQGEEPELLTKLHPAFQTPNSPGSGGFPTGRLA
Experimental: as §1, §2

[12] = biological target: T9, ADORA2A (Homo sapiens, UniProt P29274); experiment: as above; assay type: cell-based
T9 construct: expressed in transfected cells; host or cells: Saccharomyces cerevisiae BY4741-derived GPCR-Gα reporter strains, X-2 landing pad
T9 sequence (P29274 whole entry): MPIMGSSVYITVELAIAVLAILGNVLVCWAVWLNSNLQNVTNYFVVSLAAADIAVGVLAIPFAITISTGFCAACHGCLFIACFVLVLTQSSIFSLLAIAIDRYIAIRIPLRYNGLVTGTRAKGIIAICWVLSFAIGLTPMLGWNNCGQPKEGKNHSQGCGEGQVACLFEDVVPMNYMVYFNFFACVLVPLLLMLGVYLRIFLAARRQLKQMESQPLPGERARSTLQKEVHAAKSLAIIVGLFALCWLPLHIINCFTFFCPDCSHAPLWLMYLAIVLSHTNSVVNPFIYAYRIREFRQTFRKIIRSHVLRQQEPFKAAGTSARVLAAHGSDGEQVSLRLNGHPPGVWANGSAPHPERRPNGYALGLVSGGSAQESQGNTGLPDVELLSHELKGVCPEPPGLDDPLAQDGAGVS
Experimental: as §1, §2

[13] = biological target: T10, LPAR4 (Homo sapiens, UniProt Q99677); experiment: dCyFIRscreen profiling in yeast GPCR-Gα reporter strains; assay type: cell-based
T10 construct: expressed in transfected cells; host or cells: Saccharomyces cerevisiae BY4741-derived GPCR-Gα reporter strains, X-2 landing pad
T10 sequence (Q99677 whole entry): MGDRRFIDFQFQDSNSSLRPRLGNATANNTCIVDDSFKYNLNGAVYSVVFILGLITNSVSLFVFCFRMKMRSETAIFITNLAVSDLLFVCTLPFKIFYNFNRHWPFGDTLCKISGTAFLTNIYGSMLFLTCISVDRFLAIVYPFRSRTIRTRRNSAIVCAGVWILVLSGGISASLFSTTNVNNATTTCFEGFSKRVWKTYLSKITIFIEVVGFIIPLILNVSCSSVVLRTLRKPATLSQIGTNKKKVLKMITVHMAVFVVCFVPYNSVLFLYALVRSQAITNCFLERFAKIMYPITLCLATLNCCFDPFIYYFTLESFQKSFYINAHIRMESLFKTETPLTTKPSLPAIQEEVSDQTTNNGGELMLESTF
Experimental: as §1

[14] = biological target: T11, MTNR1A (Homo sapiens, UniProt P48039); experiment: dCyFIRscreen profiling and titrations in yeast GPCR-Gα reporter strains; assay type: cell-based
T11 construct: expressed in transfected cells; host or cells: Saccharomyces cerevisiae BY4741-derived GPCR-Gα reporter strains, X-2 landing pad
T11 sequence (P48039 whole entry): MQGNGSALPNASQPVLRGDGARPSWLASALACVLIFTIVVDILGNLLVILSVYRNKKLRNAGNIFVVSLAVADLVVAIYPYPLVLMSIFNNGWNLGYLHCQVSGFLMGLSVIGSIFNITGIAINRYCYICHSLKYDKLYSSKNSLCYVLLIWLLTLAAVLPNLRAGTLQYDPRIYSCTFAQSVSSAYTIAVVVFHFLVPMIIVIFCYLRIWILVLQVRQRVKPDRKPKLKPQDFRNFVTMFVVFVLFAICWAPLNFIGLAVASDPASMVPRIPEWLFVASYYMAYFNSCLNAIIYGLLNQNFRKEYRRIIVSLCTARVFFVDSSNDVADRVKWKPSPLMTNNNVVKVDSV
Experimental: as §1, §2

[15] = biological target: T12, HTR4 (Homo sapiens, UniProt Q13639); experiment: as above; assay type: cell-based
T12 construct: expressed in transfected cells; host or cells: Saccharomyces cerevisiae BY4741-derived GPCR-Gα reporter strains, X-2 landing pad
T12 sequence (Q13639 whole entry): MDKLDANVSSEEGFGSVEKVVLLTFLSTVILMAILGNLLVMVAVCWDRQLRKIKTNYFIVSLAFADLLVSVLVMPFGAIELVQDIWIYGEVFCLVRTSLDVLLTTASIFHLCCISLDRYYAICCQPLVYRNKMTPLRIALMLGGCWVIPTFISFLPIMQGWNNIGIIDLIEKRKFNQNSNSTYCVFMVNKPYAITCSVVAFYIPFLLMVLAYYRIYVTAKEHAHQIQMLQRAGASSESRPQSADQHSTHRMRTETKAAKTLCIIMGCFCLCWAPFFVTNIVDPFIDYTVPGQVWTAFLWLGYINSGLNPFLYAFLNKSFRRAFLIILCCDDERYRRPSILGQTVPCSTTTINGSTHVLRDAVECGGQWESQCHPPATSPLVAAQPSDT
Experimental: as §3, §2

[16] = biological target: T13, MTNR1B (Homo sapiens, UniProt P49286); experiment: dCyFIRscreen profiling in yeast GPCR-Gα reporter strains; assay type: cell-based
T13 construct: expressed in transfected cells; host or cells: Saccharomyces cerevisiae BY4741-derived GPCR-Gα reporter strains, X-2 landing pad
T13 sequence (P49286 1-362): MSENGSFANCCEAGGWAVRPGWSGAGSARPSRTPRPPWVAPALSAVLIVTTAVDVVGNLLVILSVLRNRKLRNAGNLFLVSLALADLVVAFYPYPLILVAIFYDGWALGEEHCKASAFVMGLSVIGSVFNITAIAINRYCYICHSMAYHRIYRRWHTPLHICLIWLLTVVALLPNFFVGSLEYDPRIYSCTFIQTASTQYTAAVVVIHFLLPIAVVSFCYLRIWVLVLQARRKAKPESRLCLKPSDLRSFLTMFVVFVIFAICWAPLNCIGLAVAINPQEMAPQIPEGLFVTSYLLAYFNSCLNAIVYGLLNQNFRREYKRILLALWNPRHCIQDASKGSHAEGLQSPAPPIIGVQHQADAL
Experimental: as §1, §2

[17] = titration, yeast GPCR-Gα reporter strain

NCCc1ccc(O)c(O)c1 [dopamine]
activity at ADRA2B in words (mode of action, potency range) [1]: micromolar agonist

O=C(O)c1cc(=O)c2ccccc2[nH]1 [KYNA, kynurenic acid]
activity at GPR35 in words (mode of action, potency range) [2]: activated
EC50 [2, 17]: 795 µM
activity at ADRA2B in words (mode of action, potency range) [1]: micromolar interactions; also recorded: negative allosteric modulator
activity at HCAR3 in words (mode of action, potency range) [3]: micromolar interactions; also recorded: orthosteric agonist
fold higher affinity (lower EC50) for HCAR3 compared to GPR35 ([3]; head-to-head titrations of GPR35 and HCAR3): 18 fold and 18.6 fold
EC50 [3]: 41 µM
fold lower EC50 at HCAR3 than phenylpropanoic acid ([3]; versus literature EC50 of phenylpropanoic acid): 5.1 fold

NCCc1ccccc1 [PEA, phenethylamine]
activity at ADRA2B in words (mode of action, potency range) [1]: micromolar

CCCCCCCCCCC/C=C\CCCCC(=O)O [petroselinic acid]
activity at LPAR1 in words (mode of action) [4]: agonist specific for
activity at S1PR2 in words (mode of action, potency range) [5]: agonist specific for
activity at S1PR1 in words (mode of action, potency range) [6]: agonist specific for

CCCCCCCCCCCCC/C=C/[C@@H](O)[C@@H](N)COP(=O)(O)O [sphingosine-1-phosphate]
active cell pool, fraction of cell-sorting events for the 300-plex [7]: 1.8%

COc1ccc2[nH]cc(CCNC(C)=O)c2c1 [melatonin]
active cell pool, fraction of cell-sorting events for the 300-plex [7]: 1.0%

C[C@]12CC[C@H](OS(=O)(=O)O)CC1=CC[C@@H]1[C@@H]2CC[C@]2(C)C(=O)CC[C@@H]12 [DHEA-S]
response in control dCyFIRscreen profiles [8]: Neither of these ligands elicited responses

CCCCCC(O)CC(=O)O (stereo not drawn) [3-hydroxyoctanoic acid]
fold higher EC50 at HCAR3 observed by Colosimo et al. versus this study ([3]; 304 μM versus 24 μM): 12.6 fold
EC50 [3]: 24 µM

C[C@]12CC[C@H](O)CC1=CC[C@@H]1[C@@H]2CC[C@]2(C)C(=O)CC[C@@H]12 [DHEA, dehydroepiandrosterone]
activity at HCAR2 in words (mode of action) [9]: increase receptor signaling
activity at GPR4 in words (mode of action) [10]: increase receptor signaling and PAMs
activity at GPR68 in words (mode of action) [11]: increase receptor signaling and PAMs
activity at GPR35 in words (mode of action, potency range) [2]: increase receptor signaling; also recorded: PAM-agonist
activity at LPAR1 in words (mode of action) [4]: increase receptor signaling
activity at HCAR3 in words (mode of action, potency range) [3]: increase receptor signaling and PAM-agonist and PAMs
activity at ADORA2A in words (mode of action) [12]: increase receptor signaling
activity at LPAR4 in words (mode of action) [13]: increase receptor signaling

CC(C)CCC[C@@H](C)[C@H]1CC[C@H]2[C@@H]3CC=C4C[C@@H](O)CC[C@]4(C)[C@H]3CC[C@]12C [cholesterol]
response in control dCyFIRscreen profiles [8]: Neither of these ligands elicited responses

phenylethanolamine [PEOA]
activity at ADRA2B in words (mode of action, potency range) [1]: nanomolar

NCCc1c[nH]c2ccccc12 [tryptamine]
activity at MTNR1A in words (mode of action, potency range) [14]: did not activate
activity at HTR4 in words (mode of action) [15]: did activate
EC50 at HTR4 (in words) ([15]; titration): micromolar range
activity at ADRA2B in words (mode of action, potency range) [1]: did activate
EC50 at ADRA2B (in words) ([1]; titration): micromolar range
activity at MTNR1B in words (mode of action) [16]: did not activate

lysophosphatidic acid [LPA]
activity at S1PR2 in words (mode of action, potency range) [5]: micromolar interactions; also recorded: higher EC50 values compared to LPAR1
activity at S1PR1 in words (mode of action, potency range) [6]: higher EC50 values compared to LPAR1

C[C@H](N)C(=O)NCC(=O)N[C@H]1CSSC[C@@H](C(=O)O)NC(=O)[C@H](CO)NC(=O)[C@H]([C@@H](C)O)NC(=O)[C@H](Cc2ccccc2)NC(=O)[C@H]([C@@H](C)O)NC(=O)[C@H](CCCCN)NC(=O)[C@H](Cc2c[nH]c3ccccc23)NC(=O)[C@H](Cc2ccccc2)NC(=O)[C@H](Cc2ccccc2)NC(=O)[C@H](CC(N)=O)NC(=O)[C@H](CCCCN)NC1=O [SRIF-14, Somatostatin-14]
active cell pool, fraction of cell-sorting events for the 300-plex [7]: 1.5%

NCCc1c[nH]c2ccc(O)cc12 [serotonin]
activity at MTNR1A in words (mode of action, potency range) [14]: micromolar interactions
EC50 [14, 17]: 60 µM
activity at ADRA2B in words (mode of action, potency range) [1]: micromolar interactions
activity at MTNR1B in words (mode of action) [16]: not find that serotonin agonized

C[C@]12CC[C@@H](O)C[C@@H]1CC[C@@H]1[C@@H]2CC[C@]2(C)C(=O)CC[C@@H]12 [androsterone]
activity at HCAR2 in words (mode of action) [9]: increase receptor signaling
activity at GPR4 in words (mode of action) [10]: increase receptor signaling and PAMs
activity at GPR68 in words (mode of action) [11]: increase receptor signaling and PAMs
activity at GPR35 in words (mode of action, potency range) [2]: increase receptor signaling
activity at LPAR1 in words (mode of action) [4]: increase receptor signaling
activity at HCAR3 in words (mode of action, potency range) [3]: increase receptor signaling and PAMs
activity at ADORA2A in words (mode of action) [12]: increase receptor signaling
activity at LPAR4 in words (mode of action) [13]: increase receptor signaling
